Test results as given in patent US9920039B2, “1,2,4-Oxadiazol compounds active against gram-positive pathogens” (UNIVERSITÀ DEGLI STUDI DI MILANO—BICOCCA, priority 2013, dated 2018).
Converted amounts (≈) assume the structure as drawn. Like-named read-outs stand apart in the source and are kept apart here.

Experiments:
[1] = tested on: Staphylococcus aureus ATCC 29213; assay: MIC by broth microdilution (CLSI); format: cell-based; conditions: Staphylococcus aureus, ATCC29213, ATCC 29213, read-out: MIC
From the text: (§1) Several well characterized for their antibiotic-susceptibility phenotype Staphylococcus aureus isolates were used for the determination of the in vitro antibacterial activity of the studied compounds. In particular, S. aureus ATCC 29213 reference standard strain and S. aureus M923 (collection strain) were used as MSSA strains. Among MRSA, S. aureus MU50 (ATCC 700699) reference standard strain and two collection strains (433 and F511) were used for susceptibility assays.
(§2) The in vitro antibacterial activity of the new agents was studied by determining their minimum inhibitory concentrations (MICs) by means of the broth microdilution method according to the Clinical and Laboratory Standards Institute (CLSI) guidelines.[16] Briefly, serial 2-fold dilutions of each compound were made using the Cation adjusted Mueller-Hinton broth (CAMHB) in microtitre plates with 96 wells. Dimethyl sulfoxide (DMSO) was used as solvent for all the synthesized compounds. An equal volume of the bacterial inoculum (1×10^6 CFU/mL) was added to each well on the microtitre plate containing 0.05 mL of the serial antibiotic dilutions. The microtitre plate was then incubated at 37° C. for 18-24 h after which each well was analysed for the presence of bacterial growth. The MIC was defined as the lowest concentration of antimicrobial agent able to cause inhibition of bacterial growth as shown by the lack of turbidity of the culture medium. […] Final DMSO concentrations were also taken into account in all the biological assays.
(§3) The antimicrobial activities, summarized in Table 2, were determined by the “gold standard” method of broth microdilution, as recommended by the Clinical Laboratory Standards Institute (CLSI) (See the Experimental Section). […] In detail, the bacterial strains were tested: Staphylococcus aureus ATCC 29213, a clinical strain of methicillin-susceptible S. aureus (M923), S. aureus MU50 (methicillin-resistant—MRSA), and two methicillin-resistant clinical strains, 433 and F511.
(§4) The antimicrobial activities, summarized in Table 3, were determined by the “gold standard” method of broth microdilution, as recommended by the Clinical Laboratory Standards Institute (CLSI) (See the Experimental Section). The minimum inhibitory concentration (MIC) values were expressed in μg/mL. […] In detail, the tested bacterial strains were: Staphylococcus aureus ATCC 29213, a clinical strain of methicillin-susceptible S. aureus (M923), S. aureus MU50 (methicillin-resistant—MRSA) strain, and two methicillin-resistant clinical strains, 433 and F511.

[2] = tested on: S. aureus MU50 (ATCC 700699), methicillin-resistant (MRSA); assay: MIC by broth microdilution (CLSI); format: cell-based, Staphylococcus aureus; conditions: Staphylococcus aureus
From the text: as §1, §2, §3, §4

[3] = tested on: MRSA clinical strain F511; assay: MIC by broth microdilution (CLSI); format: cell-based, Staphylococcus aureus; conditions: Staphylococcus aureus
From the text: as §1, §2, §3, §4

[4] = tested on: methicillin-susceptible S. aureus (M923); assay: MIC by broth microdilution (CLSI); format: cell-based, Staphylococcus aureus; conditions: Staphylococcus aureus, MSSA M923, read-out: MIC
From the text: as §1, §2, §3, §4

MRSA clinical strain 433 = assay: MIC by broth microdilution (CLSI); format: cell-based, Staphylococcus aureus; conditions: Staphylococcus aureus, MRSA 433, read-out: MIC
From the text: as §1, §2, §3, §4

[5] = tested on: 6 ATCC (4MSSA, 2 MRSA)plus45 MRSA all LZD sensitive; assay: MIC on strain panel (Table 4); format: cell-based, Staphylococcus aureus; conditions: 6 ATCC plus 45 MRSA; for MIC-range: tested range ≤0.06 - >128
From the text: as §2

[6] = tested on: 12 MRSE all LZD sensitive; assay: MIC on strain panel (Table 4); format: cell-based, Staphylococcus epidermidis
From the text: as §2

[7] = racemic mixture, Table 2, read-out: MIC
[8] = racemic form, Table 3, read-out: MIC
[9] = Staphylococcus aureus, read-out: MIC50
[10] = Staphylococcus aureus, read-out: MIC90
[11] = Staphylococcus epidermidis, read-out: MIC50
[12] = Staphylococcus epidermidis, read-out: MIC90

Row | Structure (SMILES) | melting point [°C] | MIC ([1]; racemic mixture, Table 2) [µg/mL] | MIC [2, 7] [µg/mL] | MIC [3, 7] [µg/mL] | MIC ([4]; racemic mixture, Table 2) [µg/mL] | MIC (MRSA clinical strain 433; racemic mixture, Table 2) [µg/mL] | MIC ([1]; racemic form, Table 3) [µg/mL] | MIC [2, 8] [µg/mL] | MIC [3, 8] [µg/mL] | MIC ([4]; racemic form, Table 3) [µg/mL] | MIC (MRSA clinical strain 433; racemic form, Table 3) [µg/mL] | further results
1 | CC(=O)NCC1CN(c2ccc(-c3nc(C)no3)cc2)C(=O)O1 (stereo not drawn) [Compound A3a, 3-(4′-(3″-methyl-1,2,4-oxadiazol-5-yl)-phenyl)-5-(N-acetylaminomethyl)-oxazolidin-2-one] | 214 to 216 | 12.5 (≈ 39.5 µM) | 6.25 (≈ 19.8 µM) | 12.5 (≈ 39.5 µM) | 6.25 (≈ 19.8 µM) | 1.6 (≈ 5.06 µM) |  |  |  |  |  | 
2 | CC(=O)NCC1CN(c2ccc(-c3nc(C)no3)c(F)c2)C(=O)O1 (racemic) [Compound A3b, 3-(3′-fluoro-4′-(3″-methyl-1,2,4-oxadiazol-5-yl)-phenyl)-5-(N-acetylaminomethyl)-oxazolidin-2-one] | 184 to 186 | 12.5 (≈ 37.4 µM) | 6.25 (≈ 18.7 µM) | 12.5 (≈ 37.4 µM) | 6.25 (≈ 18.7 µM) | 1.6 (≈ 4.79 µM) |  |  |  |  |  | 
3 | Cc1noc(-c2ccc(N3CC(CN=[N+]=[N-])OC3=O)cc2F)n1 (racemic) [Compound A2b, 3-(3′-fluoro-4′-(3″-methyl-1,2,4-oxadiazol-5-yl)-phenyl)-5-(azidometil)-oxazolidin-2-one] | 126.2 to 127.7 | > 50 | > 50 | > 50 | > 50 | > 50 |  |  |  |  |  | 
4 | Cc1noc(-c2ccc(N3CC(CN=[N+]=[N-])OC3=O)cc2)n1 (racemic) [Compound A2a, 3-(4′-(3″-methyl-1,2,4-oxadiazol-5-yl)-phenyl)-5-(azidometil)-oxazolidin-2-one] | 133.9 to 135 | > 50 | > 50 | > 50 | > 50 | > 50 |  |  |  |  |  | 
5 | Cc1noc(-c2ccc(N3CC(Cn4ccnn4)OC3=O)cc2)n1 (racemic) [Compound B1a] | 208 to 210 |  |  |  |  |  | 25 (≈ 76.6 µM) | 3.12 (≈ 9.58 µM) | 12.5 (≈ 38.3 µM) | 25 (≈ 76.6 µM) | 12.5 (≈ 38.3 µM) | 
6 | CNC(=S)NCC1CN(c2ccc(-c3nc(C)no3)c(F)c2)C(=O)O1 (racemic) [Compound B4b, 1-((3-(3-fluoro-4-(3-methyl-1,2,4-oxadiazol-5-yl)phenyl)-oxazolidin-2-one-5-yl)methyl)-3-methylthiourea] | 170.7 to 172.4 |  |  |  |  |  | 6.25 (≈ 17.1 µM) | 1.6 (≈ 4.38 µM) | 6.25 (≈ 17.1 µM) | 6.25 (≈ 17.1 µM) | 3.12 (≈ 8.55 µM) | MIC-range [5]: 0.5 to 16 µg/mL; MIC50 [5, 9]: 4 µg/mL; MIC90 [5, 10]: 16 µg/mL; MIC50 [6, 11]: 64 µg/mL (≈ 175 µM); MIC90 [6, 12]: 128 µg/mL (≈ 350 µM)
7 | Cc1noc(-c2ccc(N3CC(Cn4ccnn4)OC3=O)cc2F)n1 (racemic) [Compound B1b] | 176.2 to 177.8 |  |  |  |  |  | 25 (≈ 72.6 µM) | 1.6 (≈ 4.65 µM) | 12.5 (≈ 36.3 µM) | 25 (≈ 72.6 µM) | 6.25 (≈ 18.2 µM) | 
8 | CNC(=S)NC[C@H]1CN(c2ccc(-c3nc(C)no3)cc2)C(=O)O1 [Compound B4aS] |  |  |  |  |  |  |  |  |  |  |  | MIC50 [5]: 2 µg/mL; MIC90 [5]: 4 µg/mL; MIC-range [5]: 0.5 to 8 µg/mL; MIC50 [6]: 16 µg/mL (≈ 46.1 µM); MIC90 [6]: 32 µg/mL (≈ 92.1 µM); MIC range [6]: 8 to 32 µg/mL
9 | Cc1noc(-c2ccc(N3CC(CI)OC3=O)cc2)n1 (racemic) [Compound A1a, 3-(4′-(3″-methyl-1,2,4-oxadiazol-5″-yl)-phenyl)-5-(iodomethyl)-oxazolidin-2-one] | 145 to 147 | > 50 | 50 (≈ 130 µM) | 50 (≈ 130 µM) | > 50 | 25 (≈ 64.9 µM) |  |  |  |  |  | 
10 | CNC(=S)NCC1CN(c2ccc(-c3nc(C)no3)cc2)C(=O)O1 (racemic) [Compound B4a, 1-((3-(4-(3-methyl-1,2,4-oxadiazol-5-yl)phenyl)-oxazolidin-2-one-5-yl)methyl)-3-methylthiourea] | 189.4 to 191.8 |  |  |  |  |  | 6.25 (≈ 18 µM) | 1.6 (≈ 4.61 µM) | 6.25 (≈ 18 µM) | 6.25 (≈ 18 µM) | 3.12 (≈ 9 µM) | MIC-range [5]: 1 to 16 µg/mL; MIC50 [5, 9]: 8 µg/mL; MIC90 [5, 10]: 16 µg/mL; MIC50 [6, 11]: 64 µg/mL (≈ 184 µM); MIC90 [6, 12]: > 128 µg/mL
11 | CNC(=S)NC[C@@H]1CN(c2ccc(-c3nc(C)no3)cc2)C(=O)O1 [Compound B4aR] |  |  |  |  |  |  |  |  |  |  |  | MIC50 [5]: >128 µg/mL; MIC90 [5]: >128 µg/mL; MIC50 [6]: >128 µg/mL; MIC90 [6]: >128 µg/mL; MIC range [6]: >128 µg/mL
12 | Cc1noc(-c2ccc(N3CC(CI)OC3=O)cc2F)n1 (racemic) [Compound A1b, 3-(3′-fluoro-4′-(3″-methyl-1,2,4-oxadiazol-5″-yl)-phenyl)-5-(iodomethyl)-oxazolidin-2-one] | 148 to 149 | > 50 | 50 (≈ 124 µM) | > 50 | > 50 | 50 (≈ 124 µM) |  |  |  |  |  | 
